Test results reported in PubChem BioAssay (NCI).
Where “and” joins values, the source holds several entries; their conditions need not be identical. Identical values can stand only once.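 Following 48 hours of exposure in 96-well plates, responses at five concentrations were used to interpolate endpoints linearly. At the GI50, growth is halved. TGI: total growth inhibition.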

Key:
Test in all cases: inhibition of tumour cell growth, NCI panel, 48 h
[1] = test system: CCRF-CEM leukemia
[2] = test system: A498 renal
[3] = test system: A549 NSCLC
[4] = test system: NCI-H226 lung
[5] = test system: MOLT-4 leukemia
[6] = test system: SW-620 colon
[7] = test system: HCT-116 colon
[8] = test system: M14 melanoma
[9] = test system: NCI-H460 lung
[10] = test system: MCF7 breast

Compound	GI50 [1]	TGI [1]	GI50 [2]	TGI [2]	GI50 [3]	TGI [3]	GI50 [4]	TGI [4]	GI50 [5]	TGI [5]	GI50 [6]	TGI [6]	GI50 [7]	TGI [7]	GI50 [8]	TGI [8]	GI50 [9]	TGI [9]	GI50 [10]	TGI [10]
O=C(NCC1CC1)c1ccc(-c2cccc(C(=O)NC3CC3)c2)cc1	> 25 µM	> 25 µM	> 15.8 µM	> 25 µM	> 25 µM	> 25 µM	> 25 µM	> 25 µM	> 25 µM	> 25 µM	> 25 µM	> 25 µM	> 25 µM	> 25 µM	> 25 µM	> 25 µM	> 25 µM	> 25 µM	> 25 µM	> 25 µM
c1ccc(C2ONC3=NCCN32)cc1 (stereo unspecified)	21.6 µM	53.4 µM	1.97 µM	9.02 µM	51.1 µM	> 100 µM	25.3 µM	78.6 µM	12.2 µM	34.6 µM	44.7 µM	> 100 µM	30.3 µM	> 100 µM	> 100 µM	> 100 µM	44.9 µM	> 100 µM	55.9 µM	> 100 µM
O=[N+]([O-])c1ccccc1N=Nc1c(O)[nH]c2cccc(C(F)(F)F)c12	–	> 100 µM	–	> 100 µM	–	> 100 µM	–	> 100 µM	–	> 100 µM	–	> 100 µM	–	> 100 µM	–	> 100 µM	–	> 100 µM	–	> 100 µM
C=C1CCC2C3(C)COC(C)(C)OC3CCC2(C)C1C/C=C1/C(=O)OCC1OC(C)=O (stereo unspecified)	1.81 µM	11.5 µM	16.6 µM	31.5 µM	3.5 µM	12.8 µM	12.8 µM	33.7 µM	3.53 µM	14.3 µM	1.27 µM	2.74 µM	1.1 µM	2.31 µM	1.77 µM	3.78 µM	5.24 µM	17.7 µM	1.76 µM	7.99 µM
c1ccc(NN(Cc2cnccn2)c2ccccc2)cc1	–	51.2 µM	–	> 100 µM	–	> 100 µM	–	> 100 µM	–	> 100 µM	–	> 100 µM	–	> 100 µM	–	> 100 µM	–	> 100 µM	–	> 100 µM
C=CCc1c(Cl)nc(Cl)nc1Cl	–	0.0234 µM	–	3.49 µM	–	5.91 µM	–	1.69 µM	–	0.0625 µM	–	0.583 µM	–	1.18 µM	–	0.0714 µM	–	3.55 µM	–	0.668 µM
CN(C)c1cc2ccccc2oc1=O	–	> 100 µM	–	> 100 µM	–	> 100 µM	–	> 100 µM	–	> 100 µM	–	> 100 µM	–	> 100 µM	–	> 100 µM	–	> 100 µM	–	> 100 µM
Cc1ccc(S(=O)(=O)SC/C=C\CSS(=O)(=O)c2ccc(C)cc2)cc1	–	37.6 µM	–	> 100 µM	–	> 100 µM	–	71.5 µM and 55.2 µM	–	14.6 µM and 72.6 µM	–	74.2 µM and 29.8 µM	5.31 µM and 19.9 µM	29.7 µM and 41.4 µM	–	68.6 µM and 33.5 µM	–	> 94 µM and 99.4 µM	–	> 77.2 µM
